tested on: Z-138 cells; assay: Z-138 Methylation Assay (In Cell Western for symmetric di-methyl arginine and DNA content); type: cell-based; settings: Homo sapiens, Table D-2, read-out: ICW EC50
Method in brief: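 Symmetric di-methyl arginine signal (800 nm) ratioed to DNA content (700 nm) by In Cell Western after four days of compound treatment of Z-138 suspension cells seeded at 50,000 cells/mL. Percent inhibition set between DMSO and 3 μM reference wells; IC50 curves from triplicates.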

EC50, 10000 to 40000 nM:
OC(COc1cccc(-c2ccc3c(c2)OCO3)c1)CN1CCc2ccccc2C1 (centres unmarked) [Compound D59]
OC(COc1cccc(-c2cccc(F)c2F)c1)CN1CCc2ccccc2C1 (centres unmarked) [Compound D68]

EC50, < 100 nM:
CN1CCN(C(=O)Cn2ccc3cnc(-c4ccnc(NCC(O)CN5CCc6ccccc6C5)c4)nc32)CC1 (centres unmarked) [Compound D247]
O=C(Cn1ccc2cnc(-c3ccnc(NCC(O)CN4CCc5ccccc5C4)c3)nc21)N1CCCCC1 (centres unmarked) [Compound D246]
O=C(Cn1ccc2cnc(-c3ccnc(NCC(O)CN4CCc5ccccc5C4)c3)nc21)N1CCOCC1 (centres unmarked) [Compound D234]
O=C(Cn1ccc2cnc(-c3ccnc(NCC(O)CN4CCc5ccccc5C4)c3)nc21)N1CCCC1 (centres unmarked) [Compound D233]
Cn1cnc2ccc(-c3ccnc(NCC(O)CN4CCc5ccccc5C4)c3)nc21 (centres unmarked) [Compound D238]
CC(=O)N1CCC(n2ccc3cnc(-c4ccnc(NCC(O)CN5CCc6ccccc6C5)c4)nc32)CC1 (centres unmarked) [Compound D256]
OC(CNc1cc(-c2ncc3ccn(C4CCNCC4)c3n2)ccn1)CN1CCc2ccccc2C1 (centres unmarked) [Compound D255]
Cn1ccc2cnc(-c3ccnc(NCC(O)CN4CCc5ccccc5C4)c3)nc21 (centres unmarked) [Compound D239]

EC50, > 20000 nM:
CC1c2ccccc2CCN1CC(O)COc1cccc(-c2ccc3ncn(C)c3c2)c1 (centres unmarked) [Compound D80]
COC(COc1cccc(CNC2CCCC2)c1)CN1CCc2ccccc2C1 (centres unmarked) [Compound D32]

EC50, 101 to 1000 nM:
OC(CNc1cc(-c2ncc3ccn(C4CNC4)c3n2)ccn1)CN1CCc2ccccc2C1 (centres unmarked) [Compound D254]
CN1CCC(n2cnc3ccc(-c4ccnc(NCC(O)CN5CCc6ccccc6C5)c4)cc32)CC1 (centres unmarked) [Compound D252]
CN(CC(O)CN1CCc2ccccc2C1)c1cccc(CNC2CCCC2)c1 (centres unmarked) [Compound D53]
Cn1cc2ccc(-c3cc(NCC(O)CN4CCc5ccccc5C4)ncn3)cc2n1 (centres unmarked) [Compound D224]
Cn1cc2ccc(-c3cccc(OCC(O)CN4CCc5ccccc5C4)c3)nc2n1 (centres unmarked) [Compound D210]
CN1CCN(C(=O)Cn2ccc3cnc(-c4cccc(OCC(O)CN5CCc6ccccc6C5)c4)nc32)CC1 (centres unmarked) [Compound D244]
CC(C)n1cnc2ccc(-c3cccc(OCC(O)CN4CCc5ccccc5C4)c3)cc21 (centres unmarked) [Compound D81]
O=C(Cn1cnc2ccc(-c3cccc(OCC(O)CN4CCc5ccccc5C4)c3)cc21)N1CCCC1 (centres unmarked) [Compound D263]
OC(CNc1cc(-c2ccc3ncn(C4CCNCC4)c3c2)ccn1)CN1CCc2ccccc2C1 (centres unmarked) [Compound D241]
CN1CCC(n2cnc3ccc(-c4ccnc(NCC(O)CN5CCc6ccccc6C5)c4)cc32)C1 (centres unmarked) [Compound D250]
OC(CNc1cccc(-c2cccc3[nH]cnc23)c1)CN1CCc2ccccc2C1 (centres unmarked) [Compound D235]
Cn1cnc2cc(-c3cc(NCC(O)CN4CCc5ccccc5C4)n[nH]3)ccc21 (centres unmarked) [Compound D272]
Cn1cc2ccc(-c3cccc(NCC(O)CN4CCc5ccccc5C4)c3)nc2n1 (centres unmarked) [Compound D261]
OC(CNc1cc(-c2ccc3ncn(C4CCNC4)c3c2)ccn1)CN1CCc2ccccc2C1 (centres unmarked) [Compound D240]
CC(=O)N(CC(O)CN1CCc2ccccc2C1)c1cccc(-c2ccc3ncn(C)c3c2)c1 (centres unmarked) [Compound D273]
Cn1cc2ccc(-c3ccnc(NCC(O)CN4CCc5ccccc5C4)c3)cc2n1 (centres unmarked) [Compound D236]
Cn1cnc2cc(-c3cccc(OCC(O)CN4CCc5ccccc5C4)c3)ccc21 (centres unmarked) [Compound D60]
OC(CNc1cc(-c2ccc3ncn(C4COC4)c3c2)ccn1)CN1CCc2ccccc2C1 (centres unmarked) [Compound D265]
Cn1cnc2ccc(-c3cc(NCC(O)CN4CCc5ccccc5C4)n[nH]3)cc21 (centres unmarked) [Compound D271]
Cn1ncc2ccc(-c3ccnc(NCC(O)CN4CCc5ccccc5C4)c3)cc21 (centres unmarked) [Compound D226]
OC(COc1ccc(C2CCCNC2)cc1)CN1CCc2ccccc2C1 (centres unmarked) [Compound D47]
CC(=O)N1CCC(n2cnc3ccc(-c4ccnc(NCC(O)CN5CCc6ccccc6C5)c4)cc32)CC1 (centres unmarked) [Compound D242]
Cn1cnc2ccc(-c3ccnc(NC[C@H](O)CN4CCc5ccccc5C4)c3)cc21 [Compound D275]
OC(COc1cccc(-c2cccc3cccnc23)c1)CN1CCc2ccccc2C1 (centres unmarked) [Compound D65]
OC(COc1cccc(-c2ccc3ncn(C4CCNCC4)c3c2)c1)CN1CCc2ccccc2C1 (centres unmarked) [Compound D220]
CC(=O)N1CCC(n2ccc3cnc(-c4cccc(OCC(O)CN5CCc6ccccc6C5)c4)nc32)CC1 (centres unmarked) [Compound D243]
OC(COc1cccc(-c2cccc3[nH]cnc23)c1)CN1CCc2ccccc2C1 (centres unmarked) [Compound D223]
OC(COc1cccc(-c2ncc3ccn(C4CCNCC4)c3n2)c1)CN1CCc2ccccc2C1 (centres unmarked) [Compound D253]
CN1CC(n2cnc3ccc(-c4cccc(OCC(O)CN5CCc6ccccc6C5)c4)cc32)C1 (centres unmarked) [Compound D218]
Cn1cnc2ccc(-c3cccc(OCC(O)CN4CCc5ccccc5C4)c3)cc21 (centres unmarked) [Compound D45]
OC(COc1cccc(-c2ccc3ncn(C4COC4)c3c2)c1)CN1CCc2ccccc2C1 (centres unmarked) [Compound D269]
O[C@@H](COc1cccc(-c2cccc3cccnc23)c1)CN1CCc2ccccc2C1 [Compound D257]
CC(Oc1cccc(CNC2CCCC2)c1)C(O)CN1CCc2ccccc2C1 (centres unmarked) [Compound D49]
Cn1ccc2ccc(-c3cc(NCC(O)CN4CCc5ccccc5C4)ncn3)cc21 (centres unmarked) [Compound D237]
OC(COc1cccc(-c2ccc3ncn(C4CCNC4)c3c2)c1)CN1CCc2ccccc2C1 (centres unmarked) [Compound D209]
CN1CCN(C(=O)Cn2cnc3ccc(-c4cccc(OCC(O)CN5CCc6ccccc6C5)c4)cc32)CC1 (centres unmarked) [Compound D270]
CN1CCC(n2cnc3ccc(-c4cccc(OCC(O)CN5CCc6ccccc6C5)c4)cc32)CC1 (centres unmarked) [Compound D221]
CN1CCC(n2cnc3ccc(-c4cccc(OCC(O)CN5CCc6ccccc6C5)c4)cc32)C1 (centres unmarked) [Compound D219]
OC(CNc1cc(-c2ccc3ncn(C4CCOCC4)c3c2)ccn1)CN1CCc2ccccc2C1 (centres unmarked) [Compound D251]
Cn1ncc2cnc(-c3cccc(OCC(O)CN4CCc5ccccc5C4)c3)cc21 (centres unmarked) [Compound D248]
O=C(Cn1ccc2cnc(-c3cccc(OCC(O)CN4CCc5ccccc5C4)c3)nc21)N1CCOCC1 (centres unmarked) [Compound D222]
O=C(Cn1cnc2ccc(-c3cccc(OCC(O)CN4CCc5ccccc5C4)c3)cc21)N1CCCCC1 (centres unmarked) [Compound D249]
CNC(=O)Cn1ccc2cnc(-c3ccnc(NCC(O)CN4CCc5ccccc5C4)c3)nc21 (centres unmarked) [Compound D245]

EC50, 1000 to 10000 nM:
OC(COc1cccc(-c2ccc3ncn(C4CNC4)c3c2)c1)CN1CCc2ccccc2C1 (centres unmarked) [Compound D208]
CNC(=O)Cn1cnc2ccc(-c3cccc(OCC(O)CN4CCc5ccccc5C4)c3)cc21 (centres unmarked) [Compound D262]
OC(COc1cccc(-c2ccc3nc[nH]c3c2)c1)CN1CCc2ccccc2C1 (centres unmarked) [Compound D83]
CS(=O)(=O)c1ccc(-c2cccc(OCC(O)CN3CCc4ccccc4C3)c2)cc1 (centres unmarked) [Compound D63]
OC(COc1cccc(-c2cc(C(F)(F)F)ccc2Cl)c1)CN1CCc2ccccc2C1 (centres unmarked) [Compound D62]
COc1ccc(Cn2cnc3ccc(-c4cccc(OCC(O)CN5CCc6ccccc6C5)c4)cc32)cc1 (centres unmarked) [Compound D82]
Cn1ncc2c1CN(c1cccc(OCC(O)CN3CCc4ccccc4C3)c1)CC2 (centres unmarked) [Compound D216]
OC(COc1cccc(-c2ccccc2)c1)CN1CCc2ccccc2C1 (centres unmarked) [Compound D43]
COc1ccc(-c2cccc(OCC(O)CN3CCc4ccccc4C3)c2)c(C)c1 (centres unmarked) [Compound D90]
OC(COc1cccc(-c2ccc3c(c2)OCCO3)c1)CN1CCc2ccccc2C1 (centres unmarked) [Compound D85]
OC(COc1cccc(-c2cccc3c2oc2ccccc23)c1)CN1CCc2ccccc2C1 (centres unmarked) [Compound D86]
Cc1ncc2ccc(-c3cccc(OCC(O)CN4CCc5ccccc5C4)c3)cn12 (centres unmarked) [Compound D266]
OC(COc1cccc(-c2ccccc2Cl)c1)CN1CCc2ccccc2C1 (centres unmarked) [Compound D92]
CC(=O)c1cccc(-c2cccc(OCC(O)CN3CCc4ccccc4C3)c2)c1 (centres unmarked) [Compound D67]
OC(COc1cccc(-c2ccc3cn[nH]c3c2)c1)CN1CCc2ccccc2C1 (centres unmarked) [Compound D58]
OC(CNc1cccc(CNC2CCCC2)c1)CN1CCc2ccccc2C1 (centres unmarked) [Compound D39]
OCc1cccc(-c2cccc(OCC(O)CN3CCc4ccccc4C3)c2)c1 (centres unmarked) [Compound D72]
COc1cccc(-c2cccc(OCC(O)CN3CCc4ccccc4C3)c2)c1 (centres unmarked) [Compound D74]
O=C(Cn1cnc2ccc(-c3cccc(OCC(O)CN4CCc5ccccc5C4)c3)cc21)N1CCOCC1 (centres unmarked) [Compound D264]
OC(COc1cccc(-c2ccc3nn[nH]c3c2)c1)CN1CCc2ccccc2C1 (centres unmarked) [Compound D84]
COc1ccc(-c2cccc(OCC(O)CN3CCc4ccccc4C3)c2)c(Cl)c1 (centres unmarked) [Compound D88]
Cn1cnc2ccc(-c3cc(NCC(O)CN4CCc5ccccc5C4)ccn3)cc21 (centres unmarked) [Compound D217]
OC(COc1cccc(-c2cnc3ccccc3c2)c1)CN1CCc2ccccc2C1 (centres unmarked) [Compound D89]
O=C(c1ccc(Cn2nccc2-c2ccc(OCC(O)CN3CCc4ccccc4C3)cc2)cc1)N1CCCC1 (centres unmarked) [Compound D31]
COc1ccc(-c2cccc(OCC(O)CN3CCc4ccccc4C3)c2)cc1 (centres unmarked) [Compound D75]

From patent publication US20150344457A1, “METHODS OF INHIBITING PRMT5” (EPIZYME, INC., priority 2012, published 2015)
